Laboratory results from publication PMC5118987 (Antimicrobial Agents and Chemotherapy, 2016).
Read-outs that look alike come from different tables or passages of the source.

How the values were obtained:
[1] = test system: INSTI-resistant HIV-1 mutants (HXB2); experiment: microbe, parasite or virus in culture; type: cell-based
HIV-1 clonal variants = experiment: PhenoSense integrase assay, clonal variants from EVG/COBI/FTC/TDF virologic failures; type: cell-based
Source text: Clonal Analysis of HIV-1 from Patients. Plasma from 16 patients treated in Studies GS-US-236-0102 and GS-US-236-0103 with confirmed virologic failure and resistance development in the HIV-1 integrase gene were sent to Monogram Biosciences (South San Francisco, CA) for clonal analysis. The HIV-1 RNA was isolated and the cDNA was synthesized using Monogram proprietary primers. Using proprietary primers, PCR amplification of the entire protease, reverse transcriptase, and integrase coding regions of the pol gene were performed. PCR products were inserted into T/A cloning vectors.
Approximately 20 clones were chosen per patient sample for sequencing using proprietary primers. A subset of clones was chosen for phenotypic analysis based on the presence of INSTI resistance mutations. Resistance test vectors containing the patient-derived integrase coding region from selected clones were constructed using standard Monogram Biosciences protocols. […]
values) in these clones were obtained through a contract study by Monogram Biosciences using the PhenoSense integrase assay. The fold-change from the NL4-3 wild-type reference vector values was determined.

[2] = test system: inhibitor-selected HIV-1 IIIb passages; experiment: Phenotypic profile of selected HIV-1 passages; type: cell-based; settings: for EC50: Human immunodeficiency virus 1, IIIB
HIV-1 BaL = settings: primary CD4+ T-cells, 35 days, drug at tissue culture equivalent clinical Cmin (FTC 160 × EC50)

SMILES: Cc1nnc(C(=O)NC(C)(C)c2nc(C(=O)NCc3ccc(F)cc3)c(O)c(=O)n2C)o1 [RAL, raltegravir]
- EC50 ([1]; Human immunodeficiency virus 1, HXB2, IN mutant E92Q): 38 ± 9 nM
- EC50 ([1]; Human immunodeficiency virus 1, HXB2, IN mutant E92Q/N155H): 624 ± 213 nM
- EC50 ([1]; Human immunodeficiency virus 1, HXB2, IN mutant E138K/Q148K): 1530 nM
- EC50 ([1]; Human immunodeficiency virus 1, HXB2, IN mutant G140S/Q148R): 2460 nM
- EC50 ([1]; Human immunodeficiency virus 1, HXB2, IN mutant M50I (BIC/DTG selection)): 7.4 ± 1.7 nM
- EC50 ([1]; Human immunodeficiency virus 1, HXB2, IN mutant M50I/R263K (BIC selection)): 7.7 ± 2.1 nM
- EC50 ([1]; Human immunodeficiency virus 1, HXB2, IN mutant M50I/S119R/R263K (DTG selection)): 19 ± 7 nM
- EC50 ([1]; Human immunodeficiency virus 1, HXB2, IN mutant N155H): 188 ± 37 nM
- EC50 ([1]; Human immunodeficiency virus 1, HXB2, IN mutant N155H/Q148R): 2180 nM
- EC50 ([1]; Human immunodeficiency virus 1, HXB2, IN mutant Q148R): 427 ± 52 nM
- EC50 ([1]; Human immunodeficiency virus 1, HXB2, IN mutant R263K (BIC/DTG selection), Table 7): 7.7 ± 1.2 nM
- EC50 ([1]; Human immunodeficiency virus 1, HXB2, IN mutant R263K, Table 6): 10.4 ± 1.4 nM
- EC50 ([1]; Human immunodeficiency virus 1, HXB2, IN mutant S119R (DTG selection)): 15 ± 5 nM
- EC50 ([1]; Human immunodeficiency virus 1, HXB2, IN mutant S119R/R263K (DTG selection)): 12 ± 2 nM
- EC50 ([1]; Human immunodeficiency virus 1, HXB2, IN mutant S153Y (DTG selection)): 15 ± 4 nM
- EC50 ([1]; Human immunodeficiency virus 1, HXB2, IN mutant S153Y/R263K (DTG selection)): 22 ± 2 nM
- EC50 ([1]; Human immunodeficiency virus 1, HXB2, IN mutant Y143R): 418 ± 151 nM
- EC50 ([1]; Human immunodeficiency virus 1, HXB2, WT (HXB2), Table 6, read-out: EC50): 9.4 ± 1.4 nM
- EC50 ([1]; Human immunodeficiency virus 1, HXB2, WT (HXB2), Table 7, read-out: EC50): 7.1 ± 1.1 nM
- cross-resistance of BIC-selected variants ([1]; all BIC-selected variants): < 8 fold
- Susceptibility (Fold-change vs. WT) (HIV-1 clonal variants; clone 6041-11: E92Q): 3.67 fold-change
- Susceptibility (Fold-change vs. WT) (HIV-1 clonal variants; clone 6101-12: Q148R): 32 fold-change
- Susceptibility (Fold-change vs. WT) (HIV-1 clonal variants; clone 6101-14: N155H): 6.56 fold-change
- Susceptibility (Fold-change vs. WT) (HIV-1 clonal variants; clone 6101-15: E92Q): 4.41 fold-change
- Susceptibility (Fold-change vs. WT) (HIV-1 clonal variants; clone 6322-1: N155H, G163R): 15 fold-change
- Susceptibility (Fold-change vs. WT) (HIV-1 clonal variants; clone 6322-11: N155H): 11 fold-change
- Susceptibility (Fold-change vs. WT) (HIV-1 clonal variants; clone 6503-10: E92Q): 3.88 fold-change
- Susceptibility (Fold-change vs. WT) (HIV-1 clonal variants; clone 6545-7: N155H): 15 fold-change
- Susceptibility (Fold-change vs. WT) (HIV-1 clonal variants; clone 6648-7: E92Q): 4.20 fold-change
- Susceptibility (Fold-change vs. WT) (HIV-1 clonal variants; clone 6648-10: E92Q): 4.20 fold-change
- Susceptibility (Fold-change vs. WT) (HIV-1 clonal variants; clone 6648-11: E92Q): 3.97 fold-change
- Susceptibility (Fold-change vs. WT) (HIV-1 clonal variants; clone 6667-1: E92Q): 5.09 fold-change
- Susceptibility (Fold-change vs. WT) (HIV-1 clonal variants; clone 7299-11: Q148R, G140C): 24 fold-change
- Susceptibility (Fold-change vs. WT) (HIV-1 clonal variants; clone 7332-10: None): 0.79 fold-change
- Susceptibility (Fold-change vs. WT) (HIV-1 clonal variants; clone 7425-11: E92Q): 1.95 fold-change
- Susceptibility (Fold-change vs. WT) (HIV-1 clonal variants; clone 7476-5: T66I, E157Q): 1.63 fold-change
- Susceptibility (Fold-change vs. WT) (HIV-1 clonal variants; clone 7476-9: T66I, T97A, E157Q): 2.45 fold-change
- Susceptibility (Fold-change vs. WT) (HIV-1 clonal variants; clone 7562-12: N155H): 13 fold-change
- Fold-Resistance Relative to HIV-1 IIIb ([2]; HIV-1-IIIb (reference)): 1 fold
- EC50 ([2]; 480 h, selected virus EVG P2 (day 20, 7.2 nM)): 25.9 nM
- EC50 ([2]; HIV-1-IIIb (unselected)): 8.8 nM
- EC50 ([2]; selected virus BIC P3 (day 47, 6 nM)): 18.1 nM
- EC50 ([2]; selected virus BIC P5 (day 71, 12 nM)): 18.3 nM
- EC50 ([2]; selected virus BIC P6 (day 86, 24 nM)): 24.4 nM
- EC50 ([2]; selected virus BIC P8 (day 156, 96 nM)): 28.8 nM
- EC50 ([2]; selected virus BIC P9 (day 181, 192 nM)): 41.7 nM
- EC50 ([2]; selected virus BIC P10 (day 234, 384 nM)): 29.3 nM
- EC50 ([2]; selected virus DTG P3Lo (day 59, 6.4 nM)): 11.8 nM
- EC50 ([2]; selected virus DTG P4 (day 87, 9.6 nM)): 23.2 nM
- EC50 ([2]; selected virus DTG P5 (day 97, 14.4 nM)): 28 nM
- EC50 ([2]; selected virus DTG P7 (day 139, 32.4 nM)): 39.7 nM
- EC50 ([2]; selected virus DTG P9 (day 174, 72.9 nM)): 43 nM
- EC50 ([2]; selected virus DTG P10 (day 202, 109.4 nM)): 56.9 nM
- EC50 ([2]; selected virus EVG P4 (day 41, 28.8 nM)): 26.9 nM
- EC50 ([2]; selected virus EVG P6 (day 56, 115 nM)): 19.9 nM
- EC50 ([2]; selected virus EVG P7 (day 67, 230 nM)): 28.7 nM
- EC50 ([2]; selected virus EVG P9 (day 94, 922 nM)): 44.9 nM
- EC50 ([2]; selected virus EVG P10 (day 119, 1843 nM)): 17 nM
- Fold-Resistance Relative to HIV-1 IIIb ([2]; selected virus BIC P3): 2 fold
- Fold-Resistance Relative to HIV-1 IIIb ([2]; selected virus BIC P5): 2.1 fold
- Fold-Resistance Relative to HIV-1 IIIb ([2]; selected virus BIC P6): 2.8 fold
- Fold-Resistance Relative to HIV-1 IIIb ([2]; selected virus BIC P8): 3.3 fold
- Fold-Resistance Relative to HIV-1 IIIb ([2]; selected virus BIC P9): 4.7 fold
- Fold-Resistance Relative to HIV-1 IIIb ([2]; selected virus BIC P10): 3.3 fold
- Fold-Resistance Relative to HIV-1 IIIb ([2]; selected virus DTG P3Lo): 1.3 fold
- Fold-Resistance Relative to HIV-1 IIIb ([2]; selected virus DTG P4): 2.6 fold
- Fold-Resistance Relative to HIV-1 IIIb ([2]; selected virus DTG P5): 3.2 fold
- Fold-Resistance Relative to HIV-1 IIIb ([2]; selected virus DTG P7): 4.5 fold
- Fold-Resistance Relative to HIV-1 IIIb ([2]; selected virus DTG P9): 4.9 fold
- Fold-Resistance Relative to HIV-1 IIIb ([2]; selected virus DTG P10): 6.4 fold
- Fold-Resistance Relative to HIV-1 IIIb ([2]; selected virus EVG P2): 2.9 fold
- Fold-Resistance Relative to HIV-1 IIIb ([2]; selected virus EVG P4): 3.0 fold
- Fold-Resistance Relative to HIV-1 IIIb ([2]; selected virus EVG P6): 2.3 fold
- Fold-Resistance Relative to HIV-1 IIIb ([2]; selected virus EVG P7): 3.3 fold
- Fold-Resistance Relative to HIV-1 IIIb ([2]; selected virus EVG P9): 5.1 fold
- Fold-Resistance Relative to HIV-1 IIIb ([2]; selected virus EVG P10): 1.9 fold
- Frequency of Viral Breakthrough with RAMs (HIV-1 BaL): 58%
- p24+ Wells (HIV-1 BaL): 12/12
